“And” between values parts separate entries of the source, which are not always exact repeats. Identical values can stand only once. Like-named read-outs stand apart in the source and are kept apart here.
How the values were obtained:
[1] = Pharmacokinetics of PLM60 and FM in Kunming mice (plasma level of mitoxantrone); assay type: in vivo; settings: 2 mg/kg, tail vein
Method: This example was conducted in male Kunming mice with a body weight of about 20 g. Different dose levels of mitoxantrone were injected through tail vein in mice. […] Plasma samples were taken at different time points. The methods for processing and detecting plasma samples were described in the document: Methods in enzymology, Vol: 391, p176-185.

Kunming mice = assay: Acute toxicity comparison of PLM60 and FM to Kunming mice; assay type: in vivo
Source text: Mice of groups 1-5 were administrated with different dose levels of FM, while mice of groups 6-10 were administrated with an equivalent dose level of liposomal drug. […] The dead animals were dissected and autopsied.

L1210 ascitic tumor = assay: Treatment effects of liposomal mitoxantrone with different size on L1210 ascitic tumor; assay type: in vivo, BDF1 mice; settings: 4 mg/kg, 60 days observation
Source text: Ascitic tumor BDF1 mice which were inoculated with L1210 ascitic tumor cells 7 days ago were executed by decollation, and milky viscous ascitic fluid was extracted under aseptic condition and diluted by RPMI 1640 medium. After dilution, the tumor cell number was adjusted to 2.5×10^6 cells/ml. […] After inoculation, the cells in the residual tumor cell suspension were counted under light microscope, and living tumor cells were greater than 95%.
After administration, the mice were bred normally. Their body weights were measured 3 times per week, the death time of each mouse was observed and recorded, and survival time was calculated. Mean survival time (MST) and median survival time were employed to evaluate the survival time of each group. Experimental observation was kept for 60 days after the inoculation.
The experimental scheme and data process mode were the same as Example 19. […] The administration dosage for mice in each group was 4 mg/kg.

C57 mice = assay: Toxicity comparison of liposome formulations with different sizes; assay type: in vivo
Method: The dose was 9 mg/kg. […] In mice of FM group, the body weight decreased over 30% and about 20% mice died.

[2] = Tissue distribution in S-180 tumor-bearing mice; assay type: in vivo; settings: male, Kunming, mouse, intravenous, 4 mg/kg i.v.; for concentration at 1 h: t 1 h; for concentration at 4 h: t 4 h; for concentration at 8 h: t 8 h; for concentration at 24 h: t 24 h
Method: There were obvious differences in tissue distribution between PLM60 and FM in tumor-bearing mice. Male Kunming mice having a body weight about 20 g were used in the present example. […] Drugs were injected through vein in mice when tumor grew to 0.4-0.7 g. After the administration of drugs, mice were executed at various time points and their tissues were taken out to determine the concentration of mitoxantrone. The tissues included hearts, livers, spleens, lungs, kidneys, intestines, bone marrow and tumors.

S180 solid tumor = assay: Treatment effects on S-180 sarcoma solid tumor; assay type: in vivo, KM mice; settings: 21st day after inoculation
Method: Ascitic tumor-bearing mice which were inoculated with S180 tumor cells 7 days ago were executed by decollation, and milky viscous ascitic fluid was extracted and diluted with RPMI 1640 medium. After dilution, the tumor cell number was adjusted to 2.5×10^6 cells/ml. […] After inoculation, the cells in the residual tumor cell suspension were counted under light microscope, and living tumor cells were greater than 95%. The number of inoculated mice was 80.
The mice were administered by intravenous injection.
The mice were bred normally after administration. Tumor diameters were measured by vernier caliper 3 times per week, and body weights were measured at the same time. Tumor volume (TV) was calculated with the following formula: V=½×a×b2, in which a and b represent length and width, respectively. The tumor volumes were calculated by using the measurement results. Mice were executed by decollation on the 21st day after inoculation, tumors were taken out and weighed. […] The experimental result was tested by t-test.

[3] = two dissociable groups at physiological pH; cited from earlier work
[4] = heart, read-out: concentration of mitoxantrone in Heart
[5] = intestine, read-out: concentration of mitoxantrone in Intestine
[6] = kidney, read-out: concentration of mitoxantrone in Kidney
[7] = liver, read-out: concentration of mitoxantrone in Liver
[8] = lung, read-out: concentration of mitoxantrone in Lung
[9] = spleen, read-out: concentration of mitoxantrone in Spleen
[10] = tumor, read-out: concentration of mitoxantrone in Tumor

SMILES: O=C1c2c(O)ccc(O)c2C(=O)c2c(NCCNCCO)ccc(NCCNCCO)c21 [FM, mitoxantrone]
- AUMC 0-48 [1]: 0.103
- AUMC 0-∞ [1]: 0.135
- AUC(0-inf) ([1]; male, Kunming, mouse, iv): 199 ng·h/mL
- Cmax ([1]; male, Kunming, mouse, iv): 699 ng/mL
- Tmax ([1]; male, Kunming, mouse, iv): 4.98 min
- AUC(0-t) ([1]; male, Kunming, mouse, iv, read-out: AUC 0-48): 198 ng·h/mL
- MRT last ([1]; male, Kunming, mouse, iv, read-out: MRT 0-48): 31 min
- MRT inf ([1]; male, Kunming, mouse, iv, read-out: MRT 0-∞): 40.5 min
- Survival time of mice (male / female), individual animals (Kunming mice; dose 12 mg/kg): 18 day (4×) and 13 day (3×)
- Survival time of mice (male / female), individual animals (Kunming mice; dose 20 mg/kg): 7 day (4×) and 8 day (3×)
- Mean survival time (L1210 ascitic tumor): 38.67 ± 3.54
- Median survival time (L1210 ascitic tumor): 36.00 ± 6.06
- Survival rate (L1210 ascitic tumor): 33.33%
- mice died (C57 mice; male C57 mice, FM group): about 20%
- body weight decrease (C57 mice; mouse, in vivo): over 30%
- concentration at 1 h ([2]; bone marrow, read-out: concentration of mitoxantrone in Bone marrow): 127 ng/g
- concentration at 1 h [2, 4]: 5380 ng/g
- concentration at 4 h [2, 4]: 3520 ng/g
- concentration at 8 h [2, 4]: 3200 ng/g
- concentration at 24 h [2, 4]: 2940 ng/g
- concentration at 1 h [2, 5]: 1530 ng/g
- concentration at 4 h [2, 5]: 2140 ng/g
- concentration at 8 h [2, 5]: 2550 ng/g
- concentration at 24 h [2, 5]: 3940 ng/g
- concentration at 1 h [2, 6]: 18200 ng/g
- concentration at 4 h [2, 6]: 17200 ng/g
- concentration at 8 h [2, 6]: 13400 ng/g
- concentration at 24 h [2, 6]: 7460 ng/g
- concentration at 1 h [2, 7]: 4770 ng/g
- concentration at 4 h [2, 7]: 3560 ng/g
- concentration at 8 h [2, 7]: 2660 ng/g
- concentration at 24 h [2, 7]: 1940 ng/g
- concentration at 1 h [2, 8]: 10200 ng/g
- concentration at 4 h [2, 8]: 8020 ng/g
- concentration at 8 h [2, 8]: 7020 ng/g
- concentration at 24 h [2, 8]: 8080 ng/g
- concentration at 1 h [2, 9]: 4040 ng/g
- concentration at 4 h [2, 9]: 4460 ng/g
- concentration at 8 h [2, 9]: 3770 ng/g
- concentration at 24 h [2, 9]: 7750 ng/g
- concentration at 1 h [2, 10]: 61.4 ng/g
- concentration at 4 h [2, 10]: 13.3 ng/g
- Weight of tumor (S180 solid tumor; 4 mg/kg i.v.): 2828.5 ± 1067.8 mg
- Ratio of tumor-inhibiting (S180 solid tumor; 6 mg/kg i.v.): 18.50%
- Weight of tumor (S180 solid tumor; 6 mg/kg i.v.): 2293.3 ± 1720.0 mg
- pKa [3]: 8.15

Reference: patent publication US10028913B2, “Liposomal pharmaceutical preparation and method for manufacturing the same” (priority 2006, dated 2018)
